Columns and labels:
Format in all cases: in vivo
[1] = test system: CIRAR: Canada thistle (Cirsium arvense); assay: Post-emergent herbicidal test, Canada thistle; details: post-emergence, 336 h, 14 days after application, read-out: Visual Growth Reduction (%) 14 Days After Application CIRAR
Procedure: (§1) Post-Emergent Test: Seeds or nutlets of the desired test plant species were planted in Sun Gro Metro-Mix® 360 planting mixture, which typically has a pH of 6.0 to 6.8 and an organic matter content of about 30 percent, in plastic pots with a surface area of 64 square centimeters (cm^2). When required to ensure good germination and healthy plants, a fungicide treatment and/or other chemical or physical treatment was applied. The plants were grown for 7-21 d in a greenhouse with an approximate 15 h photoperiod which was maintained at about 23-29° C. during the day and 22-28° C. during the night. Nutrients and water were added on a regular basis and supplemental lighting was provided with overhead metal halide 1000-Watt lamps as necessary. The plants were employed for testing when they reached the first or second true leaf stage.
(§2) A weighed amount, determined by the highest rate to be tested, of each test compound was placed in a 25 mL glass vial and was dissolved in 4 mL of a 97:3 v/v mixture of acetone and DMSO to obtain concentrated stock solutions. […] The concentrated stock solutions obtained were diluted with 20 mL of an aqueous mixture containing acetone, water, isopropyl alcohol, DMSO, Atplus 411F crop oil concentrate, and Triton® X-155 surfactant in a 48.5:39:10:1.5:1.0:0.02 v/v ratio to obtain spray solutions containing the highest application rates. Additional application rates were obtained by serial dilution of 12 mL of the high rate solution into a solution containing 2 mL of a 97:3 v/v mixture of acetone and DMSO and 10 mL of an aqueous mixture containing acetone, water, isopropyl alcohol, DMSO, Atplus 411F crop oil concentrate, and Triton X-155 surfactant in a 48.5:39:10:1.5:1.0:0.02 v/v ratio to obtain ½×, ¼×, ⅛× and 1/16× rates of the high rate. Compound requirements are based upon a 12 mL application volume at a rate of 187 liters per hectare (L/ha). Formulated compounds were applied to the plant material with an overhead Mandel track sprayer equipped with 8002E nozzles calibrated to deliver 187 L/ha over an application area of 0.503 square meters at a spray height of 18 inches (43 cm) above the average plant canopy height. Control plants were sprayed in the same manner with the solvent blank.
(§3) The treated plants and control plants were placed in a greenhouse as described above and watered by subirrigation to prevent wash-off of the test compounds. After 14 d, the condition of the test plants as compared with that of the untreated plants was determined visually and scored on a scale of 0 to 100 percent where 0 corresponds to no injury and 100 corresponds to complete kill.

[2] = test system: ABUTH: velvetleaf (Abutilon theophrasti); assay: Post-emergent herbicidal test, velvetleaf; details: post-emergence, 336 h, 14 days after application, read-out: Visual Growth Reduction (%) 14 Days After Application ABUTH
Procedure: as §1, §2, §3

[3] = test system: BRSNN: oilseed rape, canola (Brassica napus); assay: Post-emergent herbicidal test, oilseed rape; details: post-emergence, 336 h, 14 days after application, read-out: Visual Growth Reduction (%) 14 Days After Application BRSNN
Procedure: as §1, §2, §3

[4] = test system: DIGSA: large crabgrass (Digitaria sanguinalis); assay: Post-emergent herbicidal test, large crabgrass; details: post-emergence, 336 h, 14 days after application, read-out: Visual Growth Reduction (%) 14 Days After Application DIGSA
Procedure: as §1, §2, §3

[5] = test system: ECHCG: barnyardgrass (Echinochloa crus-galli); assay: Post-emergent herbicidal test, barnyardgrass; details: post-emergence, 336 h, 14 days after application, read-out: Visual Growth Reduction (%) 14 Days After Application ECHCG
Procedure: as §1, §2, §3

[6] = test system: CYPES: yellow nutsedge (Cyperus esculentus); assay: Post-emergent herbicidal test, yellow nutsedge; details: post-emergence, 336 h, 14 days after application, read-out: Visual Growth Reduction (%) 14 Days After Application CYPES
Procedure: as §1, §2, §3

[7] = test system: IPOHE: ivyleaf morningglory (Ipomoea hederacea); assay: Post-emergent herbicidal test, ivyleaf morningglory; details: post-emergence, 336 h, 14 days after application, read-out: Visual Growth Reduction (%) 14 Days After Application IPOHE
Procedure: as §1, §2, §3

[8] = test system: VIOTR: wild violet (Viola tricolor); assay: Post-emergent herbicidal test, wild violet; details: post-emergence, 336 h, 14 days after application, read-out: Visual Growth Reduction (%) 14 Days After Application VIOTR
Procedure: as §1, §2, §3

[9] = test system: SORVU: shattercane (Sorghum bicolor); assay: Post-emergent herbicidal test, shattercane; details: post-emergence, 336 h, 14 days after application, read-out: Visual Growth Reduction (%) 14 Days After Application SORVU
Procedure: as §1, §2, §3

[10] = test system: SETFA: giant foxtail (Setaria faberi); assay: Post-emergent herbicidal test, giant foxtail; details: post-emergence, 336 h, 14 days after application, read-out: Visual Growth Reduction (%) 14 Days After Application SETFA
Procedure: as §1, §2, §3

[11] = test system: EPHHL: wild poinsettia (Euphorbia heterophylla); assay: Post-emergent herbicidal test, wild poinsettia; details: post-emergence, 336 h, 14 days after application, read-out: Visual Growth Reduction (%) 14 Days After Application EPHHL
Procedure: as §1, §2, §3

## COC(=O)c1nc(-c2ccc(Cl)c3c2OCO3)c(F)c(N)c1Cl [Compound 1A, methyl 4-amino-3-chloro-6-(7-chlorobenzo[d][1,3]dioxol-4-yl)-5-fluoropicolinate]
[1]; 17.5 g ai/ha
  pest or weed control at 17.5 g/ha: 83%
[1]; 35 g ai/ha
  pest or weed control at 35 g/ha: 83%
[1]; 70 g ai/ha
  pest or weed control at 70 g/ha: 88%
[1]; 140 g ai/ha
  pest or weed control at 140 g/ha: 93%
[2]; 17.5 g ai/ha
  pest or weed control at 17.5 g/ha: 85%
[2]; 35 g ai/ha
  pest or weed control at 35 g/ha: 90%
[2]; 70 g ai/ha
  pest or weed control at 70 g/ha: 93%
[2]; 140 g ai/ha
  pest or weed control at 140 g/ha: 95%
[3]; 17.5 g ai/ha
  pest or weed control at 17.5 g/ha: 78%
[3]; 35 g ai/ha
  pest or weed control at 35 g/ha: 88%
[3]; 70 g ai/ha
  pest or weed control at 70 g/ha: 95%
[3]; 140 g ai/ha
  pest or weed control at 140 g/ha: 98%
[4]; 17.5 g ai/ha
  pest or weed control at 17.5 g/ha: 5%
[4]; 35 g ai/ha
  pest or weed control at 35 g/ha: 20%
[4]; 70 g ai/ha
  pest or weed control at 70 g/ha: 50%
[4]; 140 g ai/ha
  pest or weed control at 140 g/ha: 28%
[5]; 17.5 g ai/ha
  pest or weed control at 17.5 g/ha: 8%
[5]; 35 g ai/ha
  pest or weed control at 35 g/ha: 18%
[5]; 70 g ai/ha
  pest or weed control at 70 g/ha: 28%
[5]; 140 g ai/ha
  pest or weed control at 140 g/ha: 30%
[6]; 17.5 g ai/ha
  pest or weed control at 17.5 g/ha: 78%
[6]; 35 g ai/ha
  pest or weed control at 35 g/ha: 83%
[6]; 70 g ai/ha
  pest or weed control at 70 g/ha: 83%
[6]; 140 g ai/ha
  pest or weed control at 140 g/ha: 80%
[7]; 17.5 g ai/ha
  pest or weed control at 17.5 g/ha: 0%
[7]; 35 g ai/ha
  pest or weed control at 35 g/ha: 0%
[7]; 70 g ai/ha
  pest or weed control at 70 g/ha: 0%
[7]; 140 g ai/ha
  pest or weed control at 140 g/ha: 0%
[8]; 17.5 g ai/ha
  pest or weed control at 17.5 g/ha: 53%
[8]; 35 g ai/ha
  pest or weed control at 35 g/ha: 95%
[8]; 70 g ai/ha
  pest or weed control at 70 g/ha: 75%
[8]; 140 g ai/ha
  pest or weed control at 140 g/ha: 90%
[9]; 17.5 g ai/ha
  pest or weed control at 17.5 g/ha: 25%
[9]; 35 g ai/ha
  pest or weed control at 35 g/ha: 43%
[9]; 70 g ai/ha
  pest or weed control at 70 g/ha: 55%
[9]; 140 g ai/ha
  pest or weed control at 140 g/ha: 65%
[10]; 17.5 g ai/ha
  pest or weed control at 17.5 g/ha: 15%
[10]; 35 g ai/ha
  pest or weed control at 35 g/ha: 15%
[10]; 70 g ai/ha
  pest or weed control at 70 g/ha: 25%
[10]; 140 g ai/ha
  pest or weed control at 140 g/ha: 30%
[11]; 17.5 g ai/ha
  pest or weed control at 17.5 g/ha: 3%
[11]; 35 g ai/ha
  pest or weed control at 35 g/ha: 10%
[11]; 70 g ai/ha
  pest or weed control at 70 g/ha: 13%
[11]; 140 g ai/ha
  pest or weed control at 140 g/ha: 18%

— US11718604B2, “4-amino-6-(1,3-benzodioxole)picolinates and their use as herbicides” (Dow AgroSciences LLC, priority 2018, dated 2023)
